What was measured:
Aspc-1 = experiment: MTT cell viability, Aspc-1; format: cell-based; conditions: Homo sapiens, ASPC1, 96 h; Pancreatic cancer cells Aspc-1; 4 days incubation
Source text: (§1) The ability of the flurbiprofen analog compounds of the invention to inhibit cancer cell growth and survival (viability) in a variety of cancer lines was examined in a standard MTT assay for cell viability, as detailed in Example 2.
(§2) Similar results were obtained for the effect of the B1031 compound on the 14 pancreatic tumor cells lines shown in Table 3 below, where the dose dependent effect of the compound on survival of the pancreatic cancer cell lines is shown in FIG. 5.
(§3) The studies reported in Tables 1-3 above were carried out by incubating the cells in the test compound for four days, under standard cell-culture conditions, and measuring cell survival on day 5 (see Example 2).
(§4) Cell growth and survival following treatment with N—[(S)-2-Fluoro-α-methyl-4-biphenylacetyl]-[L-(4-phenylphenyl)alanine]-N-(2,2,6,6-tetramethyl-4-piperidinyl)amide (GCBH-110=B1031; (S)-Fmba-L-Bip-Atmp) were measured by a rapid colorimetric assay based on the tetrazolium salt MTT (3-(4,5-dimethylthiazol-2-yl)-2,5-diphenyl tetrazolium bromide) (Mosmann, J. Immunol. Methods 65: 55-63, 1983, with minor modifications).
(§5) Briefly, approximately 1,000-5,000 cancer cells from 15 different cancer cells lines were plated in 100 μL of growth medium in 96-well flat-bottomed microtiter plates. Cells were incubated overnight to allow recovery. […] Absorbance was immediately determined using a scanning multiwell plate reader.

Panc-327 = experiment: MTT cell viability, Panc-327; format: cell-based; conditions: Pancreatic cancer cell, 96 h; Pancreatic cancer cells Panc-327; 4 days incubation
Source text: as §1, §2, §3, §4, §5

[1] = system: H2122 lung carcinoma solid tumor xenograft; experiment: H2122 lung carcinoma xenograft in nude mice; format: in vivo, athymic nude mice; conditions: 5 mg/kg daily intraperitoneal, from day 7 after implantation, over the 25 days of treatment, FIG. 11
Protocol: The efficacy of the treatment method was examined for both lung carcinoma-cell tumors and pancreatic-cell tumors implanted in athymic mice, according to the method detailed in Example 3. In the first study, mice injected with lung-carcinoma cells were treated, seven days after cancer-cell implantation, by daily injection of 5 mg/kg body weight of one of three different flurbiprofen analog compounds: B1005 (GCBH 104); B1020 (GCBH 108) and B1031 (GCBH 110). Tumor size was measured by calipers at the days indicated in FIG. 11, with final tumor weight and volume being determined by extracting the tumor from the sacrificed animals.
Compounds having high in vitro cytotoxic activity were tested against implanted tumors in vivo. In one study, athymic nude mice were implanted subcutaneously with suspensions of approximately 2 million H2122 lung carcinoma cells, in Matrigel suspension. On the seventh day after tumor implantation, groups of 5 mice bearing implants were injected intraperitoneally with the compounds being tested at 5 mg/kg/every day; control animals were injected with an equal volume of isotonic saline. […] Tumor size was measured with a caliper three times per week. Tumor volume was calculated by the formula: Volume (cc)=3.14×(length)×(width)^2/6
At autopsy, tumors were removed and weighed. Tumor inhibition was calculated on both weight and measurement basis.

H3225 = experiment: MTT cell viability, H3225; format: cell-based; conditions: 96 h; Adenocarcinoma lung cell line H3225; 4 days incubation
Protocol: as §1, §3, §4
as §5, with “recovery. Compounds to be tested were added to the cells in triplicate in a range of concentrations and the cells were incubated at 37° C., 5% CO2, with 100% humidity. Control cells were treated in the same way without antagonists.” for “recovery.”

H1264 = experiment: MTT cell viability, H1264; format: cell-based; conditions: 96 h; Adenosquamous lung cell line H1264; 4 days incubation
Protocol: as §1, §3, §4
as §5, with “recovery. Compounds to be tested were added to the cells in triplicate in a range of concentrations and the cells were incubated at 37° C., 5% CO2, with 100% humidity. Control cells were treated in the same way without antagonists.” for “recovery.”

Panc-504 = experiment: MTT cell viability, Panc-504; format: cell-based; conditions: Pancreatic cancer cell, 96 h; Pancreatic cancer cells Panc-504; 4 days incubation
Source text: as §1, §2, §3, §4, §5

H446 = experiment: MTT cell viability, H446; format: cell-based; conditions: Homo sapiens, NCI-H446, 96 h; SCLC lung cell line H446; 4 days incubation
Protocol: as §1, §3, §4
as §5, with “recovery. Compounds to be tested were added to the cells in triplicate in a range of concentrations and the cells were incubated at 37° C., 5% CO2, with 100% humidity. Control cells were treated in the same way without antagonists.” for “recovery.”

H157 = experiment: MTT cell viability, H157; format: cell-based; conditions: Homo sapiens, NCI-H157, 96 h; Squamous lung cell line H157; 4 days incubation
Protocol: as §1, §3, §4
as §5, with “recovery. Compounds to be tested were added to the cells in triplicate in a range of concentrations and the cells were incubated at 37° C., 5% CO2, with 100% humidity. Control cells were treated in the same way without antagonists.” for “recovery.”

CaLu3 = experiment: MTT cell viability, CaLu3; format: cell-based; conditions: Homo sapiens, Calu-3, 96 h; Adenocarcinoma lung cell line CaLu3; 4 days incubation
Protocol: as §1, §3, §4
as §5, with “recovery. Compounds to be tested were added to the cells in triplicate in a range of concentrations and the cells were incubated at 37° C., 5% CO2, with 100% humidity. Control cells were treated in the same way without antagonists.” for “recovery.”

MSK922 = experiment: MTT cell viability, MSK922; format: cell-based; conditions: Head and neck cancer cell line MSK922
Protocol: as §1
(§6) A similar study was conducted on 14 […] cancer cell lines, identified in Table 2.
as §4
(§7) Briefly, approximately 1,000-5,000 cancer cells from 15 different cancer cells lines were plated in 100 μL of growth medium in 96-well flat-bottomed microtiter plates. Cells were incubated overnight to allow recovery. Compounds to be tested were added to the cells in triplicate in a range of concentrations and the cells were incubated at 37° C., 5% CO2, with 100% humidity. Control cells were treated in the same way without antagonists. […] Plates were incubated for 4 days, allowing sufficient time for cell replication and compound-induced cell death to occur. […] Absorbance was immediately determined using a scanning multiwell plate reader. […]

A549 = experiment: MTT cell viability, A549; format: cell-based; conditions: Homo sapiens, 96 h; Adenocarcinoma lung cell line A549; 4 days incubation
Protocol: as §1, §3, §4
(§8) Briefly, approximately 1,000-5,000 cancer cells from 15 different cancer cells lines were plated in 100 μL of growth medium in 96-well flat-bottomed microtiter plates. Cells were incubated overnight to allow recovery. Compounds to be tested were added to the cells in triplicate in a range of concentrations and the cells were incubated at 37° C., 5% CO2, with 100% humidity. Control cells were treated in the same way without antagonists. […] Absorbance was immediately determined using a scanning multiwell plate reader.

1483 = experiment: MTT cell viability, 1483; format: cell-based; conditions: Head and neck cancer cell line 1483
Protocol: as §1, §6, §4, §7

H719 = experiment: MTT cell viability, H719; format: cell-based; conditions: 96 h; SCLC lung cell line H719; 4 days incubation
Protocol: as §1, §3, §4, §8

HADF-2 = experiment: MTT cell viability, HADF-2; format: cell-based; conditions: Pancreatic cancer cell, 96 h; Pancreatic cancer cells HADF-2; 4 days incubation
Source text: as §1, §2, §3, §4, §5

L36 = experiment: MTT cell viability, L36; format: cell-based; conditions: Pancreatic cancer cell, 96 h; Pancreatic cancer cells L36; 4 days incubation
Source text: as §1, §2, §3, §4, §5

H441 = experiment: MTT cell viability, H441; format: cell-based; conditions: Homo sapiens, NCI-H441, 96 h; Adenocarcinoma lung cell line H441; 4 days incubation
Protocol: as §1, §3, §4, §8

[2] = system: 15 different cancer cells lines; experiment: MTT cell viability, 15 different cancer cell lines (FIG. 1); format: cell-based; conditions: 96 h, several cancer cell lines, 4 days, read-out: concentrations causing 50% cell death
Protocol: as §4
Briefly, approximately 1,000-5,000 cancer cells from 15 different cancer cells lines were plated in 100 μL of growth medium in 96-well flat-bottomed microtiter plates. Cells were incubated overnight to allow recovery. Compounds to be tested were added to the cells in triplicate in a range of concentrations and the cells were incubated at 37° C., 5% CO2, with 100% humidity. Control cells were treated in the same way without antagonists. […] Plates were incubated for 4 days, allowing sufficient time for cell replication and compound-induced cell death to occur. On day 5, 25 μL of a 2 mg/mL solution of MTT (Sigma) dissolved in RMPI-1640 was added to each well. The plate was incubated for 4 h at 37° C. The supernatant liquid was removed and the blue formazan complex was dissolved by adding 100 μL of 0.02 N HCl in 75% isopropanol to all wells. Absorbance was immediately determined using a scanning multiwell plate reader.

Structure (SMILES): C[C@H](C(=O)N[C@@H](Cc1ccc(-c2ccccc2)cc1)C(=O)NC1CC(C)(C)NC(C)(C)C1)c1ccc(-c2ccccc2)c(F)c1 [GCBH-110, N—[(S)-2-Fluoro-α-methyl-4-biphenylacetyl]-[L-(4-phenylphenyl)alanine]-N-(2,2,6,6-tetramethyl-4-piperidinyl)amide]
- IC50 (Aspc-1): 0.5 µM
- IC50 (Panc-327): 0.67 µM
- inhibition of growth of the lung carcinoma cell line H2122 tumor [1]: 76%
- IC50 (H3225): 1.1 µM
- IC50 (H1264): 0.63 µM
- IC50 (Panc-504): 0.16 µM
- IC50 (H446): 0.44 µM
- IC50 (H157): 0.21 µM
- IC50 (CaLu3): 1.3 µM
- IC50 (MSK922): 0.41 µM
- IC50 (A549): 0.55 µM
- IC50 1483: 0.3 µM
- IC50 (H719): 1.08 µM
- IC50 (HADF-2): 0.7 µM
- IC50 (L36): 0.6 µM
- IC50 (H441): 1.6 µM
- IC50 [2]: 0.1 to 1 µM
